Reference: US5925618A, “Peptides useful as somatostatin antagonists” (American Cyanamid Company, priority 1998, dated 1999)
Square brackets hold non-standard residues; d marks the D form. Peptide text beside a SMILES is read from it.

molecular target: T1, rat SSTR2 (Rattus norvegicus, UniProt P30680); test: cAMP accumulation in forskolin-stimulated GH4 C1/SSTR2 cells; type: cell-based; details: Forskolin 1.25 μM + MK 678 10 nM, no peptide 1
T1 construct: expressed in transfected cells; host or cells: GH4C1 rat pituitary tumor cells
Source text: A primary effect of SRIF upon mammalian cells is the reduction of cyclic adenosine 3',5'-monophosphate(cAMP) levels, via inhibition of adenylyl cyclase. This is the basis of a common assay for SRIF agonists and antagonists, whereby SRIF agonists reduce artificially stimulated cAMP levels, and SRIF antagonists reverse the effect of SRIF. The rat pituitary tumor cell line GH4 C1 predominantly expresses SSTR2, and responds to SRIF and to forskolin, a stimulator of adenylate cyclase (see C. M. Eppler, et al., J. Biol. Chem., 267, 15603-15612, 1992, incorporated herein by reference). A highly sensitive assay for SRIF agonists and antagonists results from additionally transfecting GH4 C1 cells with the cloned rat SSTR2, (see L. A. Price, et al., Molecular and Cellular Biology, 15, 6188-6195, 1995, incorporated herein by reference). This increases the response to SRIF and provides a greater dynamic range for the measurement of SRIF antagonist activity.
Stimulation of cells. GH4 C1 /SSTR2 cells, grown in DMEM with 10% bovine serum, are released from a tissue culture dish by incubation for several minutes at 37° C. with PBS containing 0.5 mM EDTA. Cells are washed in induction buffer (PBS containing 100 μM IBMX (an inhibitor of cAMP breakdown) and 2 mM CaCl2) at room temperature, and resuspended at 2×10^6 /mL in induction buffer. Into each well of a 96-well tray are added 50 μL of a 2× concentration of stimulants in induction buffer. These include (at final concentration) 1.25 μM forskolin, 100 nM SRIF or 10 nM of the SSTR2-selective agonist MK678 and test peptides at various concentrations. To initiate stimulation of the cells, 50 μL (100,000) cells are added to each well, mixed by shaking 10 seconds on a plate shaker and placed at 37° C. for 15 minutes. Stimulation is arrested and cells are lysed by adding 15 μL 0.33N HCl to each well and incubating the plate for 30 minutes at 37° C. Samples are neutralized by addition of 15 μL 0.25N NaOH/50 mM Hepes pH 7.4. Baseline cAMP levels are determined in samples with no added forskolin or SRIF, and each treatment is performed in triplicate.
cAMP assay. To measure accumulated cAMP in the samples, a radioimmunoassay is employed. The scintillation proximity assay (SPA, Amersham, Arlington Heights, Ill.) allows the rapid measurement of ^125 I cAMP bound to a specific antibody without separating bound radioligand from free radioligand. Each of the following reagents (50 μL) are added per well in a 96-well tray: supernatants from the cell stimulation; ^125 I cAMP; SPA beads conjugated to monkey anti-rabbit IgG antibodies; and rabbit anti-cAMP antibodies. For the standard curve, known amounts of cAMP (0.2-12.8 pmol) are added in place of cell supernatants. The 96-well tray is sealed, shaken at room temperature overnight and measured for bound radioligand in a MicroBeta liquid scintillation counter (Wallac, Gaithersburg, Md.). The standard curve is determined for each experiment by performing a nonlinear regression (exponential decay) analysis of cpm measured for the cAMP standards vs. their log concentrations, and test sample values are determined by using Prism software (Graphpad Software Inc., San Diego, Calif.) and are shown in Table II and FIG. 1. FIG. I illustrates the antagonist activity of Peptide 1.
The intrinsic activity of an SRIF antagonist is the percent reversal of the SSTR2, activation by SRIF or MK678, wherein 0% is defined by cAMP levels in samples treated with forskolin plus SRIF or MK678 and 100% is the cAMP level measured after treatment with forskolin alone. Therefore, increased intrinsic activity of a test compound indicates increased antagonist activity of said test compound.
FIG. […]
An inverse agonist is a compound that is not only a pure antagonist (i.e. lacking agonist activity), but also blocks the constitutive activity of an unoccupied receptor. One indication of inverse agonist activity is the ability of a SRIF antagonist to increase cAMP levels in the absence of added SRIF. […]

T1 sequence (P30680 whole entry): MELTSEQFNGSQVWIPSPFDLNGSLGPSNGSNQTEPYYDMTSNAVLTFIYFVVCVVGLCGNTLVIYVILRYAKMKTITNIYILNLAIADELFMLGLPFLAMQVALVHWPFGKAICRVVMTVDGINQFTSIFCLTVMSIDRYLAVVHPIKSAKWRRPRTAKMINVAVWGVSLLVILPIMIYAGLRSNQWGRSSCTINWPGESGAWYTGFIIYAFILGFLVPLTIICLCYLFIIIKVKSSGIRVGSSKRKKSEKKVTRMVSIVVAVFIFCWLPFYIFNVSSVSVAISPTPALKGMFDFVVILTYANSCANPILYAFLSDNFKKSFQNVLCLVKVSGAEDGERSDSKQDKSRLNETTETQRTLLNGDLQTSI

With `CC(C)[C@@H]1NC(=O)[C@H](CCCCN)NC(=O)[C@@H](Cc2c[nH]c3ccccc23)NC(=O)[C@H](Cc2ccc(O)cc2)NC(=O)[C@H](C)N(C)C(=O)[C@H](Cc2ccccc2)NC1=O` [MK678, reference compound] the cAMP was 0.91 pM per 4 × 10^4 cells.

same assay, conditions: Forskolin 1.25 μM alone

`C=C[C@@]1(C)CC(=O)[C@]2(O)[C@@]3(C)[C@@H](O)CCC(C)(C)[C@@H]3[C@H](O)[C@H](OC(C)=O)[C@@]2(C)O1` [Forskolin, forskolin, reference compound] showed a cAMP of 3.04 pM per 4 × 10^4 cells.

same assay, conditions: GH4-C1; test peptide 2 μM; read-out: cAMP Assay, Intrinsic activity (percent reversal of SSTR2 activation by SRIF or MK678)

Compared with `CC[C@@H](C)[C@@H](NC(=O)[C@@H](Cc1ccccc1)NC(=O)[C@@H](C)NC(C)=O)C(=O)N[C@H](CCCNC(=N)N)C(=O)N[C@H](Cc1c[nH]c2ccccc12)C(=O)N[C@H](Cc1ccccc1)C(N)=O` [Peptide 2, a-f-i-r-w-f] (Ac-[dA][dF][dI][dR][dW][dF]-NH2), `CC[C@@H](C)[C@@H](NC(=O)[C@@H](Cc1ccccc1)NC(C)=O)C(=O)N[C@H](CCCNC(=N)N)C(=O)N[C@H](Cc1c[nH]c2ccccc12)C(=O)N[C@H](Cc1ccccc1)C(N)=O` [Peptide 7, f-i-r-w-f] (Ac-[dF][dI][dR][dW][dF]-NH2) is lower in Emax: 13% for the first, -7.2% for the second.

First: CC[C@@H](C)[C@@H](NC(=O)[C@@H](C)NC(=O)[C@@H](Cc1c[nH]cn1)NC(C)=O)C(=O)N[C@H](CCCNC(=N)N)C(=O)N[C@H](Cc1c[nH]c2ccccc12)C(=O)N[C@H](Cc1ccccc1)C(N)=O [Peptide 3, h-a-i-r-w-f] (Ac-[dH][dA][dI][dR][dW][dF]-NH2)
Second: CC[C@@H](C)[C@@H](NC(=O)[C@@H](Cc1c[nH]cn1)NC(C)=O)C(=O)N[C@H](CCCNC(=N)N)C(=O)N[C@H](Cc1c[nH]c2ccccc12)C(=O)N[C@H](Cc1ccccc1)C(N)=O [Peptide 8, h-i-r-w-f] (Ac-[dH][dI][dR][dW][dF]-NH2)
The Emax of the first is higher: 9.33% for the first, 2.76% for the second.

Compared with `CC(=O)N[C@H](Cc1c[nH]cn1)C(=O)N[C@H](Cc1ccccc1)C(=O)N[C@H](C)C(=O)N[C@H](CCCNC(=N)N)C(=O)N[C@H](Cc1c[nH]c2ccccc12)C(=O)N[C@H](Cc1ccccc1)C(N)=O` [Peptide 4, h-f-a-r-w-f] (Ac-[dH][dF][dA][dR][dW][dF]-NH2), `CC(=O)N[C@H](Cc1c[nH]cn1)C(=O)N[C@H](Cc1ccccc1)C(=O)N[C@H](CCCNC(=N)N)C(=O)N[C@H](Cc1c[nH]c2ccccc12)C(=O)N[C@H](Cc1ccccc1)C(N)=O` [Peptide 9, h-f-r-w-f] (Ac-[dH][dF][dR][dW][dF]-NH2) is lower in Emax: 41.8% for the first, 6.36% for the second.

Compared with `CC[C@@H](C)[C@@H](NC(=O)[C@@H](Cc1ccccc1)NC(=O)[C@@H](Cc1c[nH]cn1)NC(C)=O)C(=O)N[C@H](C)C(=O)N[C@H](Cc1c[nH]c2ccccc12)C(=O)N[C@H](Cc1ccccc1)C(N)=O` [Peptide 5, h-f-i-a-w-f] (Ac-[dH][dF][dI][dA][dW][dF]-NH2), `CC[C@@H](C)[C@@H](NC(=O)[C@@H](Cc1ccccc1)NC(=O)[C@@H](Cc1c[nH]cn1)NC(C)=O)C(=O)N[C@H](Cc1c[nH]c2ccccc12)C(=O)N[C@H](Cc1ccccc1)C(N)=O` [Peptide 10, h-f-i-w-f] (Ac-[dH][dF][dI][dW][dF]-NH2) is lower in Emax: 44.1% for the first, 25.3% for the second.

Compared with `CC[C@@H](C)[C@@H](NC(=O)[C@@H](Cc1ccccc1)NC(=O)[C@@H](Cc1c[nH]cn1)NC(C)=O)C(=O)N[C@H](CCCNC(=N)N)C(=O)N[C@H](C)C(=O)N[C@H](Cc1ccccc1)C(N)=O` [Peptide 6, h-f-i-r-a-f] (Ac-[dH][dF][dI][dR][dA][dF]-NH2), `CC[C@@H](C)[C@@H](NC(=O)[C@@H](Cc1ccccc1)NC(=O)[C@@H](Cc1c[nH]cn1)NC(C)=O)C(=O)N[C@H](CCCNC(=N)N)C(=O)N[C@H](Cc1ccccc1)C(N)=O` [Peptide 11, h-f-i-r-f] (Ac-[dH][dF][dI][dR][dF]-NH2) is lower in Emax: 13.4% for the first, 12.1% for the second.

First: CC[C@@H](C)[C@@H](NC(=O)[C@@H](Cc1ccccc1)NC(=O)[C@@H](Cc1c[nH]cn1)NC(C)=O)C(=O)N[C@H](CCCNC(=N)N)C(=O)N[C@H](Cc1c[nH]c2ccccc12)C(N)=O [Peptide 12, h-f-i-r-w] (Ac-[dH][dF][dI][dR][dW]-NH2)
Second: CC[C@@H](C)[C@@H](NC(=O)[C@@H](Cc1ccccc1)NC(=O)[C@H](Cc1c[nH]cn1)NC(C)=O)C(=O)N[C@H](CCCNC(=N)N)C(=O)N[C@H](Cc1c[nH]c2ccccc12)C(=O)N[C@H](Cc1ccccc1)C(N)=O [Peptide 13, H-f-i-r-w-f] (Ac-H[dF][dI][dR][dW][dF]-NH2)
The Emax of the first is higher: 29.1% for the first, 26.2% for the second.

Compared with `CC[C@@H](C)[C@@H](NC(=O)[C@H](Cc1ccccc1)NC(=O)[C@@H](Cc1c[nH]cn1)NC(C)=O)C(=O)N[C@H](CCCNC(=N)N)C(=O)N[C@H](Cc1c[nH]c2ccccc12)C(=O)N[C@H](Cc1ccccc1)C(N)=O` [Peptide 14, h-F-i-r-w-f] (Ac-[dH]F[dI][dR][dW][dF]-NH2), `CC[C@H](C)[C@H](NC(=O)[C@@H](Cc1ccccc1)NC(=O)[C@@H](Cc1c[nH]cn1)NC(C)=O)C(=O)N[C@H](CCCNC(=N)N)C(=O)N[C@H](Cc1c[nH]c2ccccc12)C(=O)N[C@H](Cc1ccccc1)C(N)=O` [Peptide 15, h-f-I-r-w-f] (Ac-[dH][dF]I[dR][dW][dF]-NH2) is lower in Emax: 29.6% for the first, 9.71% for the second.

Going from `CC[C@@H](C)[C@@H](NC(=O)[C@@H](Cc1ccccc1)NC(=O)[C@@H](Cc1c[nH]cn1)NC(C)=O)C(=O)N[C@@H](CCCNC(=N)N)C(=O)N[C@H](Cc1c[nH]c2ccccc12)C(=O)N[C@H](Cc1ccccc1)C(N)=O` [Peptide 16, h-f-i-R-w-f] (Ac-[dH][dF][dI]R[dW][dF]-NH2) to `CC[C@@H](C)[C@@H](NC(=O)[C@@H](Cc1ccccc1)NC(=O)[C@@H](Cc1c[nH]cn1)NC(C)=O)C(=O)N[C@H](CCCNC(=N)N)C(=O)N[C@@H](Cc1c[nH]c2ccccc12)C(=O)N[C@H](Cc1ccccc1)C(N)=O` [Peptide 17, h-f-i-r-W-f] (Ac-[dH][dF][dI][dR]W[dF]-NH2), the Emax rises from 43.6% to 50.2%.

Compared with `CC[C@@H](C)[C@@H](NC(=O)[C@@H](Cc1ccccc1)NC(=O)[C@@H](Cc1c[nH]cn1)NC(C)=O)C(=O)N[C@H](CCCNC(=N)N)C(=O)N[C@H](Cc1c[nH]c2ccccc12)C(=O)N[C@@H](Cc1ccccc1)C(N)=O` [Peptide 18, h-f-i-r-w-F] (Ac-[dH][dF][dI][dR][dW]F-NH2), `CC[C@@H](C)[C@@H](NC(=O)[C@@H](Cc1ccc(O)cc1)NC(=O)[C@@H](Cc1c[nH]cn1)NC(C)=O)C(=O)N[C@H](CCCNC(=N)N)C(=O)N[C@H](Cc1c[nH]c2ccccc12)C(=O)N[C@H](Cc1ccccc1)C(N)=O` [Peptide 20, h-y-i-r-w-f] (Ac-[dH][dY][dI][dR][dW][dF]-NH2) is higher in Emax: 46.7% for the first, 56.5% for the second.

Compared with `CC[C@@H](C)[C@@H](NC(=O)[C@@H](Cc1ccc(O)cc1)NC(=O)[C@@H](CCCCN)NC(C)=O)C(=O)N[C@H](CCCNC(=N)N)C(=O)N[C@H](Cc1c[nH]c2ccccc12)C(=O)N[C@H](Cc1ccccc1)C(N)=O` [Peptide 19, k-y-i-r-w-f] (Ac-[dK][dY][dI][dR][dW][dF]-NH2), `CC[C@@H](C)[C@@H](NC(=O)[C@@H](Cc1c[nH]c2ccccc12)NC(=O)[C@@H](Cc1c[nH]cn1)NC(C)=O)C(=O)N[C@H](CCCNC(=N)N)C(=O)N[C@H](Cc1c[nH]c2ccccc12)C(=O)N[C@H](Cc1ccccc1)C(N)=O` [Peptide 21, h-w-i-r-w-f] (Ac-[dH][dW][dI][dR][dW][dF]-NH2) is higher in Emax: 33.3% for the first, 54.7% for the second.

same assay, conditions: forskolin stimulated cells; agonist alone or with 10 μM peptide 1

`CC(C)[C@@H]1NC(=O)[C@H](CCCCN)NC(=O)[C@@H](Cc2c[nH]c3ccccc23)NC(=O)[C@H](Cc2ccc(O)cc2)NC(=O)[C@H](C)N(C)C(=O)[C@H](Cc2ccccc2)NC1=O` [MK678, reference compound] was tested, and the “Maximum (cAMP level of agonist dose response)” value was 6.431.

`CC(C)[C@@H]1NC(=O)[C@H](CCCCN)NC(=O)[C@@H](Cc2c[nH]c3ccccc23)NC(=O)[C@H](Cc2ccc(O)cc2)NC(=O)[C@H](C)N(C)C(=O)[C@H](Cc2ccccc2)NC1=O` [MK678, reference compound] was tested, and the “Minimum (cAMP level of agonist dose response)” value was 2.673.
